Our source for the T/C values is PubChem BioAssay AID196 (DTP/NCI, 2004).

The test system of this test is BDF1 mice, intracerebral B16 melanoma, median survival T/C. The experiment in a line: NCI In Vivo Anticancer Drug Screen. Data for tumor model B16 Melanoma (intracerebral) in B6D2F1 (BDF1) mice. The note with it: endpoint: median survival time, higher = longer survival. The protocol: The antitumor activity of compounds was measured in mice bearing transplantable tumors. Survival or tumor size were measured and the results are expressed as the measurement made in the treated group (T) divided by the measurement made in the vehicle treated control group (C). The tumor model used in this assay is B16 Melanoma (intracerebral) in B6D2F1 (BDF1) mice

Setting [1] is: dose: 6.48 mg/kg/injection, schedule: Q01DX001 (ip), vehicle: other.
The mark [2] stands for this setting: dose: 0.5 mg/kg/injection, schedule: Q01DX009 (ip), vehicle: saline.
Setting [3] is: dose: 1.0 mg/kg/injection, schedule: Q01DX009 (ip), vehicle: saline.
The mark [4] stands for this setting: dose: 2.0 mg/kg/injection, schedule: Q01DX009 (ip), vehicle: saline.
Where [5] appears, read: dose: 0.12 mg/kg/injection, schedule: Q01DX009 (ip), vehicle: saline.
Where [6] appears, read: dose: 0.25 mg/kg/injection, schedule: Q01DX009 (ip), vehicle: saline.
Setting [7] is: dose: 0.5 mg/kg/injection, schedule: Q01DX009 (ip), vehicle: Klucel (hydroxypropylcellulose) (HPC).
Where [8] appears, read: dose: 1.0 mg/kg/injection, schedule: Q01DX009 (ip), vehicle: Klucel (hydroxypropylcellulose) (HPC).

Several values for one entry are separate records, joined by “and”; a condition that tells them apart may be missing. Identical values can stand only once. Toxic doses and inconclusive results are not listed.

Consider `O=NN(CCCl)C(=O)NC1CCC(=O)NC1=O` (stereo not drawn), for which the T/C is, setting by setting: (dose: 0.5 mg/kg/injection, schedule: Q01DX009 (ip), vehicle: saline with Tween-80) 108 % of control; (dose: 2.0 mg/kg/injection, schedule: Q01DX009 (ip), vehicle: saline with Tween-80) 153 % of control; (dose: 4.0 mg/kg/injection, schedule: Q01DX009 (ip), vehicle: saline with Tween-80) 202 % of control; (dose: 4.32 mg/kg/injection, schedule: Q01DX001 (ip), vehicle: Klucel (hydroxypropylcellulose) (HPC)) 111 % of control; under setting [1], 120 % of control; (dose: 7.2 mg/kg/injection, schedule: Q01DX001 (ip), vehicle: Klucel (hydroxypropylcellulose) (HPC)) 122 % of control. Moreover, the T/C reads like this: (dose: 8.0 mg/kg/injection, schedule: Q01DX009 (ip), vehicle: saline with Tween-80) 337 % of control; (dose: 11.9 mg/kg/injection, schedule: Q01DX001 (ip), vehicle: Klucel (hydroxypropylcellulose) (HPC)) 172 % of control; (dose: 12.0 mg/kg/injection, schedule: Q01DX001 (ip), vehicle: Klucel (hydroxypropylcellulose) (HPC)) 150 % of control; (dose: 16.0 mg/kg/injection, schedule: Q01DX009 (ip), vehicle: saline with Tween-80) 89 % of control; (dose: 17.8 mg/kg/injection, schedule: Q01DX001 (ip), vehicle: Klucel (hydroxypropylcellulose) (HPC)) 201 % of control; (dose: 18.0 mg/kg/injection, schedule: Q01DX001 (ip), vehicle: other) 338 % of control. The T/C by setting is: (dose: 20.0 mg/kg/injection, schedule: Q01DX001 (ip), vehicle: Klucel (hydroxypropylcellulose) (HPC)) 204 % of control; (dose: 26.7 mg/kg/injection, schedule: Q01DX001 (ip), vehicle: Klucel (hydroxypropylcellulose) (HPC)) 187 % of control; (dose: 40.0 mg/kg/injection, schedule: Q01DX001 (ip), vehicle: Klucel (hydroxypropylcellulose) (HPC)) 120 % of control.
Take `Nc1ncnc2c1ncn2C1OC(COP(=O)(O)O)C(O)C1O` (stereo not drawn): the T/C (dose: 1600.0 mg/kg/injection, schedule: Q01DX009 (ip), vehicle: saline) is 99 % of control and 102 % of control.
In the case of `O=NN(CCCl)C(=O)NCCCl`, the T/C under setting [2] is 104 % of control and 112 % of control; the T/C under setting [3] is 109 % of control and 113 % of control; the T/C (dose: 1.87 mg/kg/injection, schedule: Q01DX009 (ip), vehicle: saline) is 120 % of control; the T/C under setting [4] was 111 % of control and 112 % of control; the T/C (dose: 2.5 mg/kg/injection, schedule: Q04DX003 (ip), vehicle: saline sonified) is 108 % of control; the T/C (dose: 3.8 mg/kg/injection, schedule: Q01DX009 (ip), vehicle: saline) is 108 % of control. Moreover, the T/C (dose: 5.0 mg/kg/injection, schedule: Q01DX009 (ip), vehicle: other) is 158 % of control; the T/C (dose: 7.5 mg/kg/injection, schedule: Q01DX009 (ip), vehicle: saline) is 150 % of control; the T/C (dose: 8.0 mg/kg/injection, schedule: Q01DX009 (ip), vehicle: saline) was 172 % of control and 188 % of control; the T/C (dose: 10.0 mg/kg/injection, schedule: Q04DX003 (ip), vehicle: saline sonified) is 175 % of control; the T/C (dose: 15.0 mg/kg/injection, schedule: Q01DX009 (ip), vehicle: saline) was 91 % of control and 108 % of control.
Turning to `S=c1nc[nH]c2nc[nH]c12`, the T/C runs as follows: (dose: 11.3 mg/kg/injection, schedule: Q01DX009 (ip), vehicle: other) 91 % of control; (dose: 22.5 mg/kg/injection, schedule: Q01DX009 (ip), vehicle: other) 100 % of control; (dose: 45.0 mg/kg/injection, schedule: Q01DX009 (ip), vehicle: other) 100 % of control.
For the molecule `Cc1ncc(CO)c(C)c1O`, the T/C reads like this: (dose: 128.0 mg/kg/injection, schedule: Q01DX005 (ip), vehicle: Klucel (hydroxypropylcellulose) (HPC)) 100 % of control and 109 % of control; (dose: 256.0 mg/kg/injection, schedule: Q01DX005 (ip), vehicle: Klucel (hydroxypropylcellulose) (HPC)) 98 % of control and 105 % of control.
For `CS(=O)(=O)Nc1ccc(Nc2c3ccccc3nc3cc([N+](=O)[O-])ccc23)cc1`, the T/C was 100 % of control (dose: 25.0 mg/kg/injection, schedule: Q04DX003 (ip), vehicle: saline sonified); 95 % of control (dose: 50.0 mg/kg/injection, schedule: Q04DX003 (ip), vehicle: saline sonified); 87 % of control (dose: 75.0 mg/kg/injection, schedule: Q04DX003 (ip), vehicle: saline sonified).
In the case of `Cc1c2ccncc2c(C)c2c1[nH]c1ccccc12`, the T/C (dose: 10.0 mg/kg/injection, schedule: Q01DX009 (ip), vehicle: saline) is 113 % of control.
As for `N[C@@H](Cc1ccc(N(CCCl)CCCl)cc1)C(=O)O`, the T/C is 95 % of control under setting [2]; 100 % of control (dose: 0.5 mg/kg/injection, schedule: Q01DX009 (ip), vehicle: water); 100 % of control under setting [3]; 104 % of control (dose: 1.0 mg/kg/injection, schedule: Q01DX009 (ip), vehicle: water); 120 % of control under setting [4]; 116 % of control (dose: 2.0 mg/kg/injection, schedule: Q01DX009 (ip), vehicle: water). In addition, under “dose: 4.0 mg/kg/injection, schedule: Q01DX009 (ip), vehicle: saline”, the T/C is 87 % of control.
In the case of `COc1ccc(CC2C(=O)NC(C)C(=O)N(C)C3C(=O)N(C)C(Cc4ccc(O)c(c4)Oc4ccc(cc4)C3O)C(=O)NC(C)C(=O)NC(C)C(=O)N2C)cc1` (stereo not drawn), the T/C by setting is: (dose: 0.12 mg/kg/injection, schedule: Q01DX009 (ip), vehicle: Klucel (hydroxypropylcellulose) (HPC)) 97 % of control and 102 % of control; under setting [5], 93 % of control; (dose: 0.25 mg/kg/injection, schedule: Q01DX009 (ip), vehicle: Klucel (hydroxypropylcellulose) (HPC)) 100 % of control and 108 % of control; under setting [6], 103 % of control; under setting [7], 94 % of control and 97 % of control and 100 % of control; under setting [2], 102 % of control. For the same molecule, the T/C reads like this: under setting [8], 90 % of control and 94 % of control and 100 % of control; under setting [3], 98 % of control; under setting [4], 100 % of control.
Consider `OC(C1CO1)C(O)C1CO1` (stereo not drawn), for which the T/C reads like this: under setting [5], 100 % of control and 101 % of control; under setting [6], 122 % of control and 110 % of control; under setting [2], 94 % of control and 112 % of control; under setting [3], 120 % of control and 103 % of control; under setting [4], 123 % of control.
On to `CC(=O)NNC(=O)c1ccccn1`, for which the T/C by setting is: (dose: 100.0 mg/kg/injection, schedule: Q01DX005 (ip), vehicle: Klucel (hydroxypropylcellulose) (HPC)) 104 % of control and 108 % of control; (dose: 200.0 mg/kg/injection, schedule: Q01DX005 (ip), vehicle: Klucel (hydroxypropylcellulose) (HPC)) 100 % of control.
In the case of `CC1CCC(NC(=O)N(CCCl)N=O)CC1` (stereo not drawn), the T/C is 105 % of control under setting [7]; 102 % of control under setting [8]; 111 % of control (dose: 2.0 mg/kg/injection, schedule: Q01DX009 (ip), vehicle: Klucel (hydroxypropylcellulose) (HPC)); 117 % of control (dose: 4.0 mg/kg/injection, schedule: Q01DX009 (ip), vehicle: Klucel (hydroxypropylcellulose) (HPC)); 106 % of control under setting [1]; 117 % of control (dose: 10.8 mg/kg/injection, schedule: Q01DX001 (ip), vehicle: other). Besides, the T/C (dose: 50.0 mg/kg/injection, schedule: Q01DX001 (ip), vehicle: other) is 118 % of control.
With `CC(=O)OC1COC(NC(=O)N(CCCl)N=O)C(OC(C)=O)C1OC(C)=O` (stereo not drawn), the T/C reads like this: (dose: 0.18 mg/kg/injection, schedule: Q01DX009 (ip), vehicle: saline) 104 % of control; (dose: 0.37 mg/kg/injection, schedule: Q01DX009 (ip), vehicle: saline) 104 % of control; (dose: 0.75 mg/kg/injection, schedule: Q01DX009 (ip), vehicle: saline) 113 % of control; (dose: 1.5 mg/kg/injection, schedule: Q01DX009 (ip), vehicle: saline) 113 % of control.
On to `NC(=S)N/N=C/c1ccc(O)cn1`, for which the T/C runs as follows: (dose: 12.0 mg/kg/injection, schedule: Q01DX005 (ip), vehicle: saline) 96 % of control; (dose: 12.0 mg/kg/injection, schedule: Q01DX005 (ip), vehicle: suspension in saline) 103 % of control; (dose: 24.0 mg/kg/injection, schedule: Q01DX005 (ip), vehicle: saline) 93 % of control; (dose: 24.0 mg/kg/injection, schedule: Q01DX005 (ip), vehicle: suspension in saline) 96 % of control; (dose: 48.0 mg/kg/injection, schedule: Q01DX005 (ip), vehicle: saline) 100 % of control; (dose: 48.0 mg/kg/injection, schedule: Q01DX005 (ip), vehicle: suspension in saline) 91 % of control. Further, the T/C (dose: 96.0 mg/kg/injection, schedule: Q01DX005 (ip), vehicle: saline) is 97 % of control and the T/C (dose: 96.0 mg/kg/injection, schedule: Q01DX005 (ip), vehicle: suspension in saline) was 108 % of control.
